What all share (type): in vivo
The test system of assay [1] is Tobacco cutworm (Spodoptera litura) larvae. The experiment in a line: Test against tobacco cutworm (Spodoptera litura) larvae, leaf dip. The conditions noted are these: active compound concentration 100 ppm; third instar larvae on dipped sweet potato leaves; after 7 days. How it is done:
(§1) Unless described otherwise, the test solutions were prepared as follows:
(§2) The active compound, 1 part by weight of the active compound was admixed with the solvent in the above described amount which contains the emulsifying agent in the above described amount. The mixture was then diluted with water to specific concentration.
(§3) In order to prepare the test solution containing the active compound, 1 part by weight of the active compound was admixed with 3 parts by weight of the solvent dimethyl formamide which contains 1 part by weight of the emulsifying agent polyoxyethylene alkylphenyl ether. This mixture is then diluted with water to the specific concentration.
(§4) Solvent: dimethyl formamide, 3 parts by weight; emulsifying agent: polyoxyethylene alkylphenyl ether, 1 part by weight
Leaves of sweet potato were immersed in the test solution at the appropriate concentration, and the leaves were dried in air. The leaves were then placed in a petri dish having a diameter of 9 cm, and ten Spodoptera litura at third instar larvae were released therein. The petri dishes were placed in a temperature-controlled chamber at 25° C. After 2 days and 4 days more sweet potato leaves were added. After 7 days, the number of dead larvae was counted to calculate the insecticidal activity. An insecticidal activity of 100% means that all larvae were killed, whereas an insecticidal activity of 0% means that no larva was killed. In the current test, the results of two petri dishes for each treatment were averaged.

The subject of assay [2] is Cucurbit leaf beetle (Aulacophora femoralis). Briefly: Test against cucurbit leaf beetle (Aulacophora femoralis), leaf dip. The conditions noted are these: active compound concentration 100 ppm; second instar larvae on dipped cucumber leaves; after 7 days. How it is done: as §1, §2, §3, §4
Leaves of cucumber were immersed in the test solution at the appropriate concentration, and the leaves were dried in air. The leaves were then put in a plastic cup containing sterilized black soil and five Aulacophora femoralis at second instar larvae were released in the cup. The cups were placed in a temperature-controlled chamber at 25° C. After 7 days, the number of dead larvae was counted, and thus the insecticidal activity was calculated. An insecticidal activity of 100% means that all larvae were killed, whereas an insecticidal activity of 0% means that no larva was killed.

The subject of assay [3] is Two-spotted spider mite (Tetranychus urticae). Briefly: Test against two-spotted spider mite (Tetranychus urticae), spray. The conditions noted are these: active compound concentration 100 ppm; adult mites on kidney bean, sprayed; after 7 days. The method, then:
as §1, §2, §3, §4
50 to 100 adult mites of Tetranychus urticae were inoculated to leaves of kidney bean at two-leaf stage planted in a pot of 6 cm in diameter. After one day, test solution at the appropriate concentration was sprayed thereon in a sufficient amount using a spray gun. After the spraying, the plant pot was placed inside a greenhouse, and after 7 days, the acaricidal activity was calculated. An acaricidal activity of 100% means that all mites were killed, whereas an acaricidal activity of 0% means that no mite was killed.

`CCC(=O)NCc1ccc(N2CC(c3cc(C(F)(F)F)cc(C(F)(F)F)c3)(C(F)(F)F)OC2=O)cc1Cl` (stereo not drawn) [Compound 1-143]: the insecticidal activity in assay [1] and in assay [2] was 100% each time.

In assay [1], `CC(=O)NCc1ccc(N2CC(c3cc(C(F)(F)F)cc(C(F)(F)F)c3)(C(F)(F)F)OC2=O)cc1C` (stereo not drawn) [Compound 1-156] gave an insecticidal activity of 100%.

In the case of `O=C(NCc1ccc(N2CC(c3cc(C(F)(F)F)cc(C(F)(F)F)c3)(C(F)(F)F)OC2=O)cc1C(F)(F)F)C1CC1` (stereo not drawn) [Compound 1-131], the insecticidal activity in assay [1] and in assay [2] was 100% each time.

`O=C(CC(F)(F)F)NC1CCc2cc(N3CC(c4cc(Cl)c(Cl)c(Cl)c4)(C(F)(F)F)OC3=O)ccc21` (stereo not drawn) [Compound 4-35]: the insecticidal activity in assay [1] and in assay [2] was 100% in each case. The compound further returned an acaricidal activity in assay [3] of 100%.

`CCNC(=O)NCc1ccc(N2CC(c3cc(Cl)cc(Cl)c3)(C(F)(F)F)OC2=O)cc1C(F)(F)F` (stereo not drawn) [Compound 1-13]: the insecticidal activity in assay [1] is recorded as 100%.

In the case of `O=C(NC1CCc2cc(N3CC(c4cc(Cl)c(Cl)c(Cl)c4)(C(F)(F)F)OC3=O)ccc21)C1CC1` (stereo not drawn) [Compound 4-33], the insecticidal activity in assay [1] and in assay [2] was 100% throughout. This compound also came in with an acaricidal activity in assay [3] of 100%.

For `CC(=O)NCc1ccc(N2CC(c3cc(C(F)(F)F)cc(C(F)(F)F)c3)(C(F)(F)F)OC2=O)cc1Cl` (stereo not drawn) [Compound 1-142], the insecticidal activity in assay [1] and in assay [2] was 100% throughout.

For `C[S+]([O-])CC(=O)NCc1ccc(N2CC(c3cc(C(F)(F)F)cc(C(F)(F)F)c3)(C(F)(F)F)OC2=O)cc1Cl` (stereo not drawn) [Compound 1-149], the insecticidal activity in assay [1] and in assay [2] was 100% each time.

Consider `CCC(=O)NCc1ccc(N2CC(c3cc(Cl)c(Cl)c(Cl)c3)(C(F)(F)F)OC2=O)cc1Cl` (stereo not drawn) [Compound 1-31], for which the insecticidal activity in assay [1] and in assay [2] was 100% throughout. The compound also yielded an acaricidal activity in assay [3] of 100%.

Regarding `O=C(CC1CC1)NCc1ccc(N2CC(c3cc(Cl)c(Cl)c(Cl)c3)(C(F)(F)F)OC2=O)cc1C(F)(F)F` (stereo not drawn) [Compound 1-20], the insecticidal activity in assay [1] stood at 100%.

Consider `O=C(CC(F)(F)F)NCc1ccc(N2CC(c3cc(Cl)c(Cl)c(Cl)c3)(C(F)(F)F)OC2=O)cc1C(F)(F)F` (stereo not drawn) [Compound 1-21], for which the insecticidal activity in assay [1] and in assay [2] was 100% in each case. For the same compound, the acaricidal activity in assay [3] stood at 100%.

As for `COCCC(=O)NCc1ccc(N2CC(c3cc(Cl)c(Cl)c(Cl)c3)(C(F)(F)F)OC2=O)cc1C(F)(F)F` (stereo not drawn) [Compound 1-25], in assay [1], the insecticidal activity amounted to 100%. The acaricidal activity in assay [3] was 100%.

As to `CCC(=O)NCc1ccc(N2CC(c3cc(C(F)(F)F)cc(C(F)(F)F)c3)(C(F)(F)F)OC2=O)cc1C` (stereo not drawn) [Compound 1-157], the insecticidal activity in assay [1] and in assay [2] was 100% throughout.

As for `CC(C)(C)OC(=O)NCc1ccc(N2CC(c3cc(Cl)c(Cl)c(Cl)c3)(C(F)(F)F)OC2=O)cc1C(F)(F)F` (stereo not drawn) [Compound 1-28], the insecticidal activity in assay [1] and in assay [2] was 100% throughout.

The compound `CSCC(=O)NCc1ccc(N2CC(c3cc(C(F)(F)F)cc(C(F)(F)F)c3)(C(F)(F)F)OC2=O)cc1Cl` (stereo not drawn) [Compound 1-148] yielded an insecticidal activity in assay [2] of 100%.

With `CCCC(=O)NCc1ccc(N2CC(c3cc(Cl)c(Cl)c(Cl)c3)(C(F)(F)F)OC2=O)cc1C(F)(F)F` (stereo not drawn) [Compound 1-18], the insecticidal activity in assay [1] was 100%.

Turning to `C[C@H](NC(=O)C1CC1)c1ccc(N2CC(c3cc(Cl)c(Cl)c(Cl)c3)(C(F)(F)F)OC2=O)cc1` (stereo partly drawn) [Compound 1-373-a], the insecticidal activity in assay [1] and in assay [2] was 100% throughout. Besides, the acaricidal activity in assay [3] worked out at 100%.

With `O=C(NCc1ccc(N2CC(c3cc(Cl)cc(Cl)c3)(C(F)(F)F)OC2=O)cc1C(F)(F)F)C1CC1` (stereo not drawn) [Compound 1-5], the insecticidal activity in assay [1] and in assay [2] was 100% each time.

`NCc1ccc(N2CC(c3cc(Cl)c(Cl)c(Cl)c3)(C(F)(F)F)OC2=O)cc1C(F)(F)F` (stereo not drawn) [Compound 1-15] displayed an insecticidal activity in assay [1] of 100%.

With `CSCC(=O)NCc1ccc(N2CC(c3cc(C(F)(F)F)cc(C(F)(F)F)c3)(C(F)(F)F)OC2=O)cc1C(F)(F)F` (stereo not drawn) [Compound 1-134], the insecticidal activity in assay [1] and in assay [2] was 100% each time. In addition, the acaricidal activity in assay [3] came to 100%.

`C[C@H](NC(=O)C1CC1)c1ccc(N2CC(c3cc(Cl)cc(Cl)c3)(C(F)(F)F)OC2=O)cc1` (stereo partly drawn) [Compound 1-345-a] returned an insecticidal activity in assay [1] of 100%. The acaricidal activity in assay [3] is reported as 100%.

On to `O=C(CC1CC1)NCc1ccc(N2CC(c3cccc(C(F)(F)F)c3)(C(F)(F)F)OC2=O)cc1C(F)(F)F` (stereo not drawn) [Compound 1-76], for which the insecticidal activity in assay [1] and in assay [2] was 100% in each case. For the same compound, the acaricidal activity in assay [3] came out at 100%.

Regarding `CCC(=O)NC1CCc2cc(N3CC(c4cc(Cl)cc(Cl)c4)(C(F)(F)F)OC3=O)ccc21` (stereo not drawn) [Compound 4-3], the insecticidal activity in assay [1] is 100%.

Regarding `COCCC(=O)NCc1ccc(N2CC(c3cc(C(F)(F)F)cc(C(F)(F)F)c3)(C(F)(F)F)OC2=O)cc1C` (stereo not drawn) [Compound 1-165], the insecticidal activity in assay [1] and in assay [2] was 100% each time.

In the case of `CC(C)(C)OC(=O)NCc1ccc(N2CC(c3cc(Cl)cc(Cl)c3)(C(F)(F)F)OC2=O)cc1C(F)(F)F` (stereo not drawn) [Compound 1-14], the insecticidal activity in assay [1] and in assay [2] was 100% each time.

In the case of `CC(=O)NC(C)c1ccc(N2CC(c3cc(Cl)c(Cl)c(Cl)c3)(C(F)(F)F)OC2=O)cc1` (stereo not drawn) [Compound 1-370], the insecticidal activity in assay [1] and in assay [2] was 100% each time.

With `CC(=O)NCc1ccc(N2CC(c3cc(C(F)(F)F)cc(C(F)(F)F)c3)(C(F)(F)F)OC2=O)cc1C(F)(F)F` (stereo not drawn) [Compound 1-128], the insecticidal activity in assay [1] and in assay [2] was 100% throughout.

On to `COCCC(=O)NCc1ccc(N2CC(c3cc(C(F)(F)F)cc(C(F)(F)F)c3)(C(F)(F)F)OC2=O)cc1Cl` (stereo not drawn) [Compound 1-151], for which the insecticidal activity in assay [1] was 100%.

As to `CSCC(=O)NCc1ccc(N2CC(c3cc(Cl)c(Cl)c(Cl)c3)(C(F)(F)F)OC2=O)cc1C(F)(F)F` (stereo not drawn) [Compound 1-22], the insecticidal activity in assay [1] and in assay [2] was 100% throughout.

`O=C(CC(F)(F)F)NCc1ccc(N2CC(c3cccc(C(F)(F)F)c3)(C(F)(F)F)OC2=O)cc1C(F)(F)F` (stereo not drawn) [Compound 1-77]: the insecticidal activity in assay [1] and in assay [2] was 100% in each case.

As to `O=C(NCc1ccc(N2CC(c3cc(Cl)c(Cl)c(Cl)c3)(C(F)(F)F)OC2=O)cc1C(F)(F)F)C1CC1` (stereo not drawn) [Compound 1-19], the insecticidal activity in assay [1] and in assay [2] was 100% in each case.

`CC(NC(=O)C1CC1)c1ccc(N2CC(c3cc(Cl)c(Cl)c(Cl)c3)(C(F)(F)F)OC2=O)cc1` (stereo not drawn) [Compound 1-373]: the insecticidal activity in assay [1] was 100%. The compound further showed an acaricidal activity in assay [3] of 100%.

As for `CCCC(=O)NCc1ccc(N2CC(c3cccc(C(F)(F)F)c3)(C(F)(F)F)OC2=O)cc1C(F)(F)F` (stereo not drawn) [Compound 1-74], the insecticidal activity in assay [1] and in assay [2] was 100% each time.

With `CC(=O)NCc1ccc(N2CC(c3cccc(C(F)(F)F)c3)(C(F)(F)F)OC2=O)cc1C(F)(F)F` (stereo not drawn) [Compound 1-72], the insecticidal activity in assay [1] and in assay [2] was 100% throughout.

With `CCC(=O)NC(C)c1ccc(N2CC(c3cc(Cl)c(Cl)c(Cl)c3)(C(F)(F)F)OC2=O)cc1` (racemic) [Compound 1-371, N-(1-{4-[2-oxo-5-(3,4,5-trichlorophenyl)-5-(trifluoromethyl)-1,3-oxazolidin-3-yl]phenyl}ethyl)propanamide], the insecticidal activity in assay [1] was 100%. In assay [3], this compound showed an acaricidal activity of 100%.

For the compound `CCC(=O)N[C@H](C)c1ccc(N2CC(c3cc(Cl)c(Cl)c(Cl)c3)(C(F)(F)F)OC2=O)cc1` (stereo partly drawn) [Compound 1-371-b], the insecticidal activity in assay [1] turned out to be 100%.

With `COCCC(=O)NCc1ccc(N2CC(c3cc(C(F)(F)F)cc(C(F)(F)F)c3)(C(F)(F)F)OC2=O)cc1C(F)(F)F` (stereo not drawn) [Compound 1-137], the acaricidal activity in assay [3] amounted to 100%. In assay [2], the insecticidal activity is recorded as 100%.

The values above are taken from patent publication US20110152332A1, “Pesticidal Heterocyclic Compounds” (Bayer CropScience AG, priority 2009, published 2011).
